Columns and labels:
[1] = tested on: oocytes; assay: in vitro fertilization (IVF) assay; assay type: cell-based, mice; settings: GVB oocytes after 18 hours culture, examined 20-22 hours after insemination; control 22%
Protocol: An in vitro fertilization (IVF) assay can be performed as follows:
Naked oocytes (NO) and cumulus enclosed oocytes (CEO) from immature mice (C57B1 16J×DBAJ/2)F, were isolated and cultured under the same conditions as described for the agonistic oocyte assay (Example 5). […] The dishes were then incubated under defined gas conditions (5% CO2) at 37° C. in a modified (α-MEM IVF-medium. Neither the insemination medium nor the IVF-medium contained hypoxanthine. Examination of the oocytes was carried out 20-22 hours after insemination, in order to check fertilization and to record the number of 2-cell embryos. The percentage fertilization (=fertilization rate) was determined from counts of oocytes that had cleaved into two-cell embryos.

[2] = tested on: oocytes; assay: agonistic oocyte assay (germinal vesicle breakdown); assay type: cell-based, mice; settings: for relative GVB (relative effect): indexed against control (0) and FF-MAS (100); for GVB (percentage of oocytes undergoing germinal vesicle breakdown): oocytes cultured 24 hours at 37° C. in Hx-medium (3 mM hypoxanthine)
Protocol: An agonistic oocyte assay can be performed as follows:
Oocytes were obtained from immature female mice (C57BL/6J×DBA/2J F1, Bomholtgaard, Denmark) weighing 13-16 grams, that were kept under controlled temperature (20-22° C.), light (lights on 06.00-18.00) and relative humidity (50-70%). The mice received an intra-peritoneal injection of 0.2 ml gonadotropins (Gonal-F, Serono) containing 20 IU FSH and 48 hours later the animals were killed by cervical dislocation.
The ovaries were dissected out and the oocytes were isolated in Hx-medium (see below) under a stereo microscope by manual rupture of the follicles using a pair of 27 gauge needles. Spherical oocytes displaying an intact germinal vesicle (hereinafter designated GV) were divided in cumulus enclosed oocytes (hereinafter designated CEO) and naked oocytes (hereinafter designated NO) and placed in a-minimum essential medium (α-MEM without ribonucleosides, Gibco BRL, Cat. No. 22561) supplemented with 3 mg/ml bovine serum albumin (BSA, Sigma Cat. No. A-7030), 5 mg/ml human serum albumin (HSA, Statens Seruminstitute, Denmark), 0.23 mM pyruvate (Sigma, Cat. No S-8636), 2 mM glutamine (Flow Cat. No. 16-801), 100 IU/ml penicillin and 100 μg/ml streptomycin (Flow, Cat No. 16-700). This medium was supplemented with 3 mM hypoxanthine (Sigma Cat. No. H-9377) and designated Hx-medium.
The oocytes were rinsed three times in Hx-medium and oocytes of uniform size were divided into groups of CEO and NO. CEO and NO were cultured in 4-well multidishes (Nunclon, Denmark) in which each well contained 0.4 ml of Hx-medium. One control well (i.e., 35-45 oocytes cultured in identical medium with no addition of test compound) was always cultured simultaneously with 3 test wells (35-45 oocytes per well supplemented with test compound).
The oocytes were cultured in a humidified atmosphere of 5% CO2 in air for 24 hours at 37° C. By the end of the culture period, the number of oocytes with germinal vesicle (hereinafter designated GV), germinal vesicle breakdown (hereinafter designated GVB) and polar bodies (hereinafter designated PB), respectively, were counted using a stereomicroscope (Wildt, Leica MZ 12). The percentage GVB, defined as percentage of oocytes undergoing GVB per total number of oocytes in that well, was calculated as:
% GVB=(number of GVB+number of PB/total number oocytes)×100.
The % PB was defined as percentage of oocytes displaying one extruded polar body per total number of oocytes in that well.
The effect of the tested compounds has been indexed against control level and 4,4-5 dimethyl-5β-cholesta-8,14,24-trien-39-ol (hereinafter designated FF-MAS) where controls and FF-MAS are indexed to an effect of 0 and 100, respectively. The relative effect of the tested compound is calculated as follows: […]

[3] = tested on: naked oocytes (NO); settings: previously shown, Byskov et al. Nature 374 (1995), 559-562; cited from earlier work
[4] = tested on: naked oocytes (NO); assay: antagonistic oocyte assay (co-culture with FF-MAS); assay type: cell-based, mice; settings: naked oocytes in Hx-medium with 5 μM FF-MAS in co-culture with test compound
Protocol: An antagonistic oocyte assay can be performed as follows:
20 Oocytes were obtained from immature female mice (C57BI/6J×DBA/2J F1-hybrids, Bomholtgaard, Denmark) weighing 13-16 grams, that were kept under controlled lighting and temperature. The mice received an intra-peritoneal injection of 0.2 ml gonadotropins (Gonal F, Serono, Solna, Sweden, containing 20 IU FSH, alternatively, Puregon, Organon, Swords, Ireland containing 20 IU FSH) and 48 hours later the animals were killed by cervical dislocation.
The ovaries were dissected out and the oocytes were isolated in Hx-medium (see below) under a stereo microscope by manual rupture of the follicles using a pair of 27 gauge needles. […]
By the end of the culture period, the number of oocytes with germinal vesicle (GV) or germinal vesicle breakdown (GVB) and those with polar body (PB) was counted using a stereo-microscope or an inverted microscope with differential interference contrast equipment. The percentage of oocytes with GVB+PB per total number of oocytes were calculated in the test cultures and in the control (positive and negative) culture groups. The relative inhibition of the test compound was calculated by the following formula: […]

Compound | melting point | fertilization rate (oocytes cleaved into two-cell embryos) [1] | relative GVB (relative effect) [2] | GVB (percentage of oocytes undergoing germinal vesicle breakdown) [2] | induction of meiosis in NO in vitro [3] | PB (oocytes with polar body) [4]
CC(C)CCC[C@@H](C)[C@H]1[C@@H](O)C[C@H]2[C@@H]3CC=C4CCCC[C@]4(C)[C@H]3CC[C@]12C [Example 1, 16β-Hydroxycholest-5-ene] | 107 to 108 °C | 62% | 88% | 72% |  | 
CC(C)=CCC[C@@H](C)[C@H]1CC=C2C3=C(CC[C@@]21C)[C@@]1(C)CC[C@H](O)C(C)(C)[C@@H]1CC3 [FF-MAS, 4,4-Dimethyl-5α-cholesta-8,14,24-trien-3β-ol] |  |  |  |  | induce meiosis | 
(25R)-160.26-Dihydroxycholest-5-ene [Example 4] |  |  | 73% | 63% |  | 5%
